Reference: US11059834B2, “Macrocyclic immunomodulators” (CHEMOCENTRYX, INC., priority 2017, dated 2021)

Target: human PD-L1 / Human PD-1 (Homo sapiens (Human), UniProt Q9NZQ7)
Assay: Enzyme-Linked Immunosorbent Assay (ELISA), PD-1/PD-L1 binding
Conditions: plate-coated human PD-L1, biotinylated human PD-1, absorbance at 450 nm
Description: 96 Well plates were coated with 1 μg/mL of human PD-L1 (obtained from R&D) in PBS overnight at 4° C. The wells were then blocked with 2% BSA in PBS (W/V) with 0.05% TWEEN-20 for 1 hour at 37° C. The plates were washed 3 times with PBS/0.05% TWEEN-20 and the compounds were serial diluted (1:5) in dilution medium and added to the ELISA plates. Human PD-1 and biotin 0.3 μg/mL (ACRO Biosystems) were added and incubated for 1 hour at 37° C. then washed 3 times with PBS/0.05% TWEEN-20. A second block was performed with 2% BSA in PBS (W/V)/0.05% TWEEN-20 for 10 min at 37° C. and was washed 3 times with PBS/0.05% TWEEN-20. Streptavidin—HRP was added for 1 hour at 37° C. then washed 3 times with PBS/0.05% TWEEN-20. TMB substrate was added and reacted for 20 min at 37° C. A stop solution (2 N aqueous H2SO4) was added. The absorbance was read at 450 nm using a micro-plate spectrophotometer.
Compounds in Table 1 were prepared by methods as described in the Examples and evaluated according to the assay above.

Chain of human PD-L1 / Human PD-1 (Q9NZQ7 19-239): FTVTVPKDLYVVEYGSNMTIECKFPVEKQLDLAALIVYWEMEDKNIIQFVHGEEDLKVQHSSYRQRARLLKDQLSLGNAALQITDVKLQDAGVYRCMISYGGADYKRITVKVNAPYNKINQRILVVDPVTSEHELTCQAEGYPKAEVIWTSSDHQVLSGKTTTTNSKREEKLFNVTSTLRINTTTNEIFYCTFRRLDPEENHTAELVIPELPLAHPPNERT

IC50: 0.5 to 20 µM
SMILES: Cc1c(COc2cc3c(cc2Cl)CO[C@H](C(=O)O)CCNC(=O)c2cncc(c2)CN3)cccc1-c1ccccc1 [Compound 1.009]
